# Patent publication US8071645B2, “Systems and methods for treating human inflammatory and proliferative diseases and wounds, with fatty acid metabolism inhibitors and/or glycolytic inhibitors” (The Regents of the University of Colorado, priority 2003, dated 2011)
# Key:
# HL60 MDR cells [1] = test: % death of HL60 MDR cells by flow cytometry; type: cell-based, human; conditions: for HL60 MDR % Death: Table 1, 25 ug/mL Cerulenin
# Method: (§1) Dot plots as a function of live versus dead cells. The cells were cultured at a concentration of 0.5 to 1 million cells per ml. Cells were untreated or treated with etomoxir or 2-deoxy-D-glucose at a concentration of 2.5 mM at the indicated concentrations for either 24 or 48 hours. In additional experiments, under each of these culture conditions, the cells were cultured for 24 hours at which time point, polyclonal anti-UCP-2 was added at a 1:1000 dilution of stock provided by Alpha Diagnostics, San Antonio, Tex. Cells were harvested and analyzed by flow cytometry. Each dot on the dot plots of FIGS. 1, 3, 5, 7, 9, and 11 represents one cell. Five thousand cells were assessed for forward scatter (FS), as a function of cell size, versus side scatter (SS), as a function of cellular granularity. The upper ellipse represents live cells by these criterion and the lower ellipse in each dot plot represents the dead cells.
# (§2) Statistical Analysis, Percents, and Geometric Mean Values Percents. Gating is a tool provided by Cell Quest software and allows for the analysis of a certain population of cells. Gating around both the live and dead cell populations gave a percent of the cell numbers that was in each population. After the gates were drawn, a percent value of dead cells was calculated by taking the number of dead cells divided by the number of total cells and multiplying by one hundred.
# (§3) This example illustrates an embodiment of the invention, where multi-drug resistant cancer cells were exposed to compositions of the invention. Analysis of the cells was performed using flow cytometry. The flow cytometry experiments were performed as follows. The cells were harvested, counted, and resuspended as described above. For DNA staining, the cells were washed and resuspended in ice-cold PBS and fixed by the dropwise addition of 95% ethanol. The cells were then incubated for 30 minutes on ice, washed, and resuspended in PBS containing 1% formaldehyde and 0.01% Tween. The cells were incubated with 50 units of DNAse and washed with PBS containing 5% DNAse. The cells were then incubated with anti DNA Fab (166, kind gift of Dr. Susan Wallace, University of Vermont), then washed and stained with a fluorescein conjugated second step anti-mouse immunoglobulin. The cells were then washed and resuspended in PBS/3% BSA/1% formaldehyde. The cells were stained for intracellular H2O2 using 6-carboxy-2′,7′-dichlorodihydrofluorescein diacetate (DCF-DA, Molecular Probes, Eugene, Oreg.). The cells were incubated with 1 mM DCF-DA for 20 minutes, washed twice in PBS containing 5% fetal calf serum and analyzed using flow cytometry. The mitochondrial membrane potential was assessed using MitoTracker Red (CM-H2XROS, Molecular Probes, Eugene, Oreg.). The cells were resuspended in warm (37° C.) PBS containing a final concentration of 0.5 micromolar of dye. The cells were then incubated for 30 minutes, pelleted, and resuspended in prewarmed medium for analysis. The data was acquired on a Coulter Elite Epics or Excel flow cytometer (Coulter, Hialeah, Fla.) and analyzed with CellQuest software, (Becton Dickinson, San Jose, Calif.). […] Each sample population was classified for cell size (forward scatter) and complexity (side scatter), gated on a population of interest and evaluated using 40,000 cells. Each figure describing flow cytometric data represents one of at least four replicate experiments.
# All cell lines in this example were cultured in RPMI 1640 culture medium. The medium was supplemented with 5% fetal bovine serum (“FBS”), 2 mM L-Glutamine, 500 units/mL pennicillin/500 micrograms/mL of streptomycin, 10 mM HEPES Buffer, 10^−5 M 2-mercaptoethanol (“2-ME”), 1 mM MEM Sodium Pyruvate, and 0.04 micrograms/mL of Gentamicin (All reagents from Gibco BRL). The cells were maintained at 37° C. in a humidified atmosphere under 5% CO2 in air using standard cell culture techniques known to those of ordinary skill in the art. […]
# HL60 MDR tumor = HL60 MDR tumor implanted in nude mice, tumor volume; type: in vivo
# Text: Tumor implantation. Mice were purchased from the Animal Production Program of National Cancer Institute, Frederick, Md. The animals used were Athymic Ncr-nu/nu (strain code 01B74). HL60 MDR cells were harvested and reconstituted at 1 million cells per 100 microliters of phosphate buffered saline. One million tumor cells per injection site were implanted subcutaneously on two sites of the animal's back. Treatments began at exactly seven days post tumor implantation. Tumor size/volume was monitored twice weekly using measurement calipers, with the formula Tumor Volume=π×(short diameter)^2×(long diameter)/6.
# Mice experiments with fatty acid metabolism and glycolytic inhibitors. Fatty acid metabolism inhibitors were exemplified by etomoxir at 200 micrograms/day. Glycolytic inhibitors were exemplified by 2-deoxy-D-glucose at 2.5 mM in 100 microliters daily. The combination was administered daily, etomoxir at 200 micrograms and 2-deoxy-D-glucose at 2.5 mM in 100 microliters. All drugs were administered intra-peritoneally. 5-Fluoro-uracil, at 20 mg per kilogram mouse, was injected intra-peritoneally once a week
# HL60 MDR human leukemia cells were cultured and implanted in nude mice as described above under “Materials and Methods”. The mice were given 200 ug of Etomoxir, 2.5 mM 2-Deoxy-D-glucose, or both 200 ug of Etomoxir and 2.5 mM 2-Deoxy-D-glucose given daily by IP injection. Treatment began exactly one week after tumor implantation.
# [2] = tested on: RD cells (rhabdomyosarcoma cells); test: percent death of RD cells by flow cytometry; type: cell-based
# Method: as §1, §2
# Referring to FIGS. 29 and 30, RD cells (rhabdomyosarcoma cells—not drug resistant), cultured as described above under “Materials and Methods” were untreated or treated with etomoxir, with 2-deoxy-D-glucose, or with a combination of etomoxir and 2-deoxy-D-glucose, at concentrations indicated in FIG. 29 for 24 hours. Cells were harvested and analyzed by flow cytometry. […] The percent of cell deaths for RD cells after 24 hours was: (a) 31% when untreated, (b) 57% when treated with etomoxir alone, (c) 46% when treated with 2-deoxy-D-glucose alone, and (d) 66% when treated with the combination of etomoxir and 2-deoxy-D-glucose.
# Referring to FIGS. 33 and 34, RD cells, cultured as described in Example 22, were untreated or treated with etomoxir, with 2-deoxy-D-glucose, or with a combination of etomoxir and 2-deoxy-D-glucose, at concentrations indicated in FIG. 33 for 48 hours. Cells were harvested and analyzed by flow cytometry. […] The percent of cell deaths for RD cells after 48 hours was: (a) 36% when untreated, (b) 64% when treated with etomoxir alone, (c) 63% when treated with 2-deoxy-D-glucose alone, and (d) 68% when treated with the combination of etomoxir and 2-deoxy-D-glucose.
# L1210 DDP cells = test: % death of L1210 DDP cells by flow cytometry; type: cell-based; conditions: for L1210 DDP % Death: Table 2, 25 ug/mL Cerulenin
# Method: as §2
# (§4) This example illustrates an embodiment of the invention, where multi-drug resistant cancer cells were exposed to compositions of the invention. Analysis of the cells was performed using flow cytometry. The flow cytometry experiments were performed as follows. The cells were harvested, counted, and resuspended as described above. For DNA staining, the cells were washed and resuspended in ice-cold PBS and fixed by the dropwise addition of 95% ethanol. The cells were then incubated for 30 minutes on ice, washed, and resuspended in PBS containing 1% formaldehyde and 0.01% Tween. The cells were incubated with 50 units of DNAse and washed with PBS containing 5% DNAse. […] The cells were incubated with 1 mM DCF-DA for 20 minutes, washed twice in PBS containing 5% fetal calf serum and analyzed using flow cytometry. The mitochondrial membrane potential was assessed using MitoTracker Red (CM-H2XROS, Molecular Probes, Eugene, Oreg.). […] The data was acquired on a Coulter Elite Epics or Excel flow cytometer (Coulter, Hialeah, Fla.) and analyzed with CellQuest software, (Becton Dickinson, San Jose, Calif.). […] Each sample population was classified for cell size (forward scatter) and complexity (side scatter), gated on a population of interest and evaluated using 40,000 cells. […]
# (§5) The flow cytometry experiments were performed as follows. Once the samples were prepared and transferred into flow cytometric tubes, the samples were analyzed on a Becton/Dickinson Flow Cytometer. […] Statistical analysis, percents, and geometric mean values percents were calculated as described above.
# HL60 cells [3] = test: microscopy images of HL60 cells treated with cerulenin; type: cell-based, human; conditions: FIG. 4C
# Text: (§6) In FIG. 4, microscopy images of HL60 and HL60 MDR (“multi-drug resistant”) cells treated with cerulenin (“Treated”) and not treated with cerulenin (“No Stn”) are shown.
# HL60 cells [4] = test: % death of HL60 cells by flow cytometry; type: cell-based, human; conditions: Table 1, 25 ug/mL Cerulenin
# Method: as §2
# as §4, with “above.” for “above. For DNA staining, the cells were washed and resuspended in ice-cold PBS and fixed by the dropwise addition of 95% ethanol. The cells were then incubated for 30 minutes on ice, washed, and resuspended in PBS containing 1% formaldehyde and 0.01% Tween. The cells were incubated with 50 units of DNAse and washed with PBS containing 5% DNAse.”
# L1210 cells = test: % death of L1210 cells by flow cytometry; type: cell-based; conditions: Table 2; 25 ug/mL Cerulenin; 7.0 Hours
# Method: as §2
# as §4, with “above.” for “above. For DNA staining, the cells were washed and resuspended in ice-cold PBS and fixed by the dropwise addition of 95% ethanol. The cells were then incubated for 30 minutes on ice, washed, and resuspended in PBS containing 1% formaldehyde and 0.01% Tween. The cells were incubated with 50 units of DNAse and washed with PBS containing 5% DNAse.”
# HL60 MDR cells [5] = test: microscopy images of HL60 MDR cells treated with cerulenin; type: cell-based, human; conditions: FIGS. 4E and 4F
# Text: as §6
# B16F1 melanoma cells [6] = test: B16F1 melanoma cells exposed to cerulenin, then injected into male mice; type: in vivo
# Method: Highly carcinogenic B16F1 melanoma cells were either exposed (“treated”) or not exposed to cerulenin, then injected into male mice.
# Day 0 @2:45 pm injected with B16F1 10^6 cells in PBS, Treatment w/25 ug/ml cerulenin 5.0 hrs
# Day 0 injected w/B16F1 10^6 cells in PBS, Treatment w/25 ug/ml cerulenin 5.0 h
# Day 0 @2:45 pm injected w/B16F1 (10^6 cells in PBS) Treatment w/25 ug/ml cerulenin 5 h
# B16F1 melanoma cells [7] = test: % death of B16F1 cells by flow cytometry; type: cell-based
# Method: as §2, §3
# All cell lines in this example were cultured in RPMI 1640 culture medium. The medium was supplemented with 5% fetal bovine serum (“FBS”), 2 mM L-Glutamine, 500 units/mL pennicillin/500 micrograms/mL of streptomycin, 10 mM HEPES Buffer, 10^−5 M 2-mercaptoethanol (“2-ME”), 1 mM MEM Sodium Pyruvate, and 0.04 micrograms/mL of Gentamicin (All reagents from Gibco BRL). The cells were maintained at 37° C. in a humidified atmosphere under 5% CO2 in air using standard cell culture techniques known to those of ordinary skill in the art.
# as §5, with “Cytometer. For antibodies that were PE conjugated and for the MitoTracker Red experiments, a program for red-colored fluorochromes was utilized.” for “Cytometer.”
structure (smiles),measurement,setting,value
O=CC[C@@H](O)[C@H](O)[C@H](O)CO [2-deoxy-D-glucose],percent of cell deaths,"HL60 MDR cells [1]; HL60 MDR, 24 hours, 2-deoxy-D-glucose at 2.5 mM, etomoxir as in FIG. 27",16%
same,percent of cell deaths,"HL60 MDR cells [1]; HL60 MDR, 48 hours, concentrations as in FIG. 31",38%
same,tumor growth versus control,"HL60 MDR tumor; 21 day period, single agent",increase in tumor growth
same,"tumor volume, Day 7","HL60 MDR tumor; Day 7 after implantation (start of treatment), 200 ug Etomoxir and/or 2.5 mM 2-Deoxy-D-glucose daily IP",35 mm^3
same,"tumor volume, Day 9","HL60 MDR tumor; Day 9, 200 ug Etomoxir and/or 2.5 mM 2-Deoxy-D-glucose daily IP",51.56 mm^3
same,"tumor volume, Day 15","HL60 MDR tumor; Day 15, 200 ug Etomoxir and/or 2.5 mM 2-Deoxy-D-glucose daily IP",158.55 mm^3
same,"tumor volume, Day 21","HL60 MDR tumor; Day 21, 200 ug Etomoxir and/or 2.5 mM 2-Deoxy-D-glucose daily IP","1,181.61 mm^3"
same,percent of cell deaths,"[2]; 24 hours, concentrations as in FIG. 29",46%
same,percent of cell deaths,"[2]; 48 hours, concentrations as in FIG. 33",63%
"C/C=C/C/C=C/CCC(=O)[C@H]1O[C@H]1C(N)=O [Cerulenin, cerulenin]",cell death compared to control and non-multidrug resistant cancer cells,"HL60 MDR cells [1]; HL60 MDR, after treatment with cerulenin",greater amounts of cell death
same,HL60 MDR % Death,HL60 MDR cells [1]; 2.0 Hours,13%
same,HL60 MDR % Death,HL60 MDR cells [1]; 24 Hours,99.6%
same,cell death compared to control and non-multidrug resistant cancer cells,"L1210 DDP cells; L1210 DDP, after treatment with cerulenin",greater amounts of cell death
same,L1210 DDP % Death,L1210 DDP cells; 7.0 Hours,14%
same,L1210 DDP % Death,L1210 DDP cells; 24 Hours,92%
same,cell survival seen in microscopy images,HL60 cells [3],large numbers of the cells survived
same,HL60 % Death,HL60 cells [4]; 2.0 Hours,11%
same,HL60 % Death,HL60 cells [4]; 24 Hours,44%
same,L1210 % Death,L1210 cells,27%
same,cell death seen in microscopy images,HL60 MDR cells [5],large numbers of cell death
same,development of lethal cancers,B16F1 melanoma cells [6]; male mice injected with B16F1 cells treated with 25 ug/ml cerulenin 5.0 hrs,did not develop lethal cancers
same,"tumor observation, Day 9","B16F1 melanoma cells [6]; single mice (#7, #8, #9), 10^6 B16F1 cells treated w/25 ug/ml cerulenin 5.0 hrs, Day 9",no visible sign of tumors
same,"tumor observation, Day 12","B16F1 melanoma cells [6]; single mice (#7, #8, #9), 10^6 B16F1 cells treated w/25 ug/ml cerulenin 5.0 hrs, Day 12",no visible tumors
same,"tumor observation, Day 13","B16F1 melanoma cells [6]; single mice (#7, #8, #9), 10^6 B16F1 cells treated w/25 ug/ml cerulenin 5.0 hrs, Day 13",no visible tumors
same,B16F1 % Death,B16F1 melanoma cells [7]; Table 1; 25 ug/mL Cerulenin; 5.0 Hours,61%
same,B16F1 % Death,B16F1 melanoma cells [7]; Table 1; 25 ug/mL Cerulenin; 24 Hours,90%
same,B16F1 % Death,B16F1 melanoma cells [7]; Table 2; 25 ug/mL Cerulenin; 5.0 Hours,67%
same,B16F1 % Death,B16F1 melanoma cells [7]; Table 2; 25 ug/mL Cerulenin; 24 Hours,72%
same,B16F1 % Death,B16F1 melanoma cells [7]; Table 2; 24 Hours; 25 ug/mL Cerulenin,89%
